Two compounds from article PMC3401313 (Bioorganic & medicinal chemistry letters, 2012) can be followed below.

In assay [1] the target is recombinant His-tagged HDAC2 (Homo sapiens, UniProt Q92769). The class given is binding. The conditions noted are these: probe 25 µM, HDAC2 1.25 µM, Trichostatin A 125 µM (5-fold molar excess), 24 h preincubation, 254 nm UV.
The target in a further assay is recombinant human HDAC3 (Homo sapiens, UniProt O15379). The assay is described as follows: HDAC3 fluorogenic inhibition assay. The conditions noted are these: read-out: HDAC3 %Inhibition(10µM).
Chain of recombinant human HDAC3 (O15379 whole entry): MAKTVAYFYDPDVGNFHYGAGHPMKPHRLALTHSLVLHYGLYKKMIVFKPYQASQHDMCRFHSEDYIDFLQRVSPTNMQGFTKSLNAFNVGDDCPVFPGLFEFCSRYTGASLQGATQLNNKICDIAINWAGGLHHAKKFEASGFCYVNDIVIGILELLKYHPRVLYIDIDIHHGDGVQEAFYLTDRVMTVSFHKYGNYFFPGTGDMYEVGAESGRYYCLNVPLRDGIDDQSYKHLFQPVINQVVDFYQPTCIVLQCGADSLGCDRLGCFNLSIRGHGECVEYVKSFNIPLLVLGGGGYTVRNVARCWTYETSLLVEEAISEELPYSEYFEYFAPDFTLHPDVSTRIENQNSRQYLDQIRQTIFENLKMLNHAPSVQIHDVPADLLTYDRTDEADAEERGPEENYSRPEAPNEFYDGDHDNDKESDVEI
Chain of recombinant human HDAC3 (Q9Y618 395-489 partner limits assumed): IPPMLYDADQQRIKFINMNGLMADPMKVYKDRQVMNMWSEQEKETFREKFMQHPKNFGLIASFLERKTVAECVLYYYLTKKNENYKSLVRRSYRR

Chain of recombinant His-tagged HDAC2 (Q92769 whole entry): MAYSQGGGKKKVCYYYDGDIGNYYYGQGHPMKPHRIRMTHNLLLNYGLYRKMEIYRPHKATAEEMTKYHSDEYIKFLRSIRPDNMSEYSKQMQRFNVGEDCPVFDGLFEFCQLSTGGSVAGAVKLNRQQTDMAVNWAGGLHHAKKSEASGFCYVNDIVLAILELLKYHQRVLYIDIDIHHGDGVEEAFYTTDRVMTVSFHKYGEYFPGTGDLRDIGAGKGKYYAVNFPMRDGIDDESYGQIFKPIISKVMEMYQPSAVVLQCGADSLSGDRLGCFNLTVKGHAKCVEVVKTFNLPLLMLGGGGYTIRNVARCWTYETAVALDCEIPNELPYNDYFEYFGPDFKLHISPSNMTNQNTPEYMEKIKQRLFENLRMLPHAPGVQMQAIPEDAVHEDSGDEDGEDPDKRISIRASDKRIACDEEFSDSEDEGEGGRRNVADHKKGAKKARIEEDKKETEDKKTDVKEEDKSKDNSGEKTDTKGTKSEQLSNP

Regarding `[N-]=[N+]=NCCC(=O)Nc1ccc(C(=O)Nc2cc(N=[N+]=[N-])ccc2N)cc1` [1g], the “biotinylation of HDAC2 in competition with Trichostatin A” value in assay [1] is given as “slightly less pronounced”.

As for `O=C(CCCCCCC(=O)Nc1ccccc1)NO` [SAHA, suberoyl anilide hydroxamic acid], the inhibition (as a rule, how much of the control response was suppressed) at 10 µM on recombinant human HDAC3 was 100%.
